In patent publication US9242883B2, “Pre-treatment of sludge” (THE UNIVERSITY OF QUEENSLAND, priority 2011, dated 2016):
Values joined by “and” are separate entries in the source; they are usually repeats but may differ in a detail not shown here. Equal entries are not always repeated. Where two headings read alike, the source gives them in different places.

Tests used:
[1] = tested on: denitrifying biomass; details: methanol sludge, experimental reactor, 48 hours, FNA approx. 0.97 ppm, pH 6; 16 images
Description: 2. A batch experiment was performed at pH 6 for initial biomass activity determination. At the beginning of the test, nitrate and methanol were added. Liquid phase samples were taken every 15 minutes for the analysis of nitrate and methanol. The consumption rates of methanol and nitrate were determined. All other batch tests described below were also conducted at pH 6. 3. Fresh sludge of 2 L was removed from the SBR at the end of a cycle, and equally divided into two batch reactors, namely the control and the experimental reactors. • a. The sludge in the control reactor was kept at pH 6 under mixed conditions for 48 hours; • b. The sludge in the experimental reactor was kept at pH 6 under mixed conditions for 48 hours. […] 4. 24 hours after the above conditions were started, sludge samples of 250 mL each were removed from both the control and the experimental reactors, and batch experiments as described in Step 2 were performed. […] Sludge samples were also removed at 48 hours from both reactors to quantify the live/dead cells using the Live/Dead BacLight Bacterial Viability assay. […] The methanol and nitrate consumptions rates at the end of Day 3, Day 4 and Day 7 were measured through measuring the nitrate and methanol concentrations over a period over one hour each time. […]

[2] = tested on: bacteria in a full-scale sludge; details: FNA treated, 48 hours, 500 mgNO2-N/L, pH 6.0, 29 images
Description: Similar tests were performed on a full-scale sludge. However, no activity tests were carried out. […] The nitrite concentration applied to the experimental reactor was 500 mgNO2-N/L. pH was maintained at 6.0 in both the control and experimental reactors.

[3] = Description: In this experiment, a lab-scale sequencing batch reactor (SBR) with a working volume of 8 L was used in this study. The SBR was operated with a cycle time of 6-h, consisting of 10 min anoxic feed, 70 min anoxic reaction, 225 min aerobic reaction, 5 min sludge wasting, 45 min settling and 5 min decanting periods. In each cycle, 2 L of synthetic wastewater containing 400 mg COD and 50 mgN/L TKN including 40 mgNH4+-N/L, made from milk powder and ammonium chloride, along with other trace elements, was pumped into the SBR in the 10 min feed period, resulting in a hydraulic retention time (HRT) of 24 h. Before settling, around 133 ml of mixed liquor was wasted, giving rise to a sludge retention time of 15 days. The SBR was operated at a temperature of 18±2° C., with DO being controlled between 1.5-2.0 mg/L by a programmable logic controller (PLC) in the aerobic period.
50% of the wasted mixed liquor was treated by 2.0 mg HNO2-N/L for approximately 24 h, 30 h, 36 h and 42 h, respectively.
The sludge wasted from the SBR was allowed to settle. […] The other 50% of the sludge was sent to disposal.
A control SBR operating under identical conditions was also fed with the same wastewater, but there was no recycle of any sludge to this reactor.

[4] = tested on: secondary sludge; details: famine conditions, during FNA treatment (FIG. 4)
Source text: NH4+ release rate under famine conditions is an indication of the hydrolysis of intracellular compounds release during the decay of dying cells. This hydrolysis is taken place by the activity of other living microorganisms present in the sludge.

[5] = tested on: AOB, NOB and OHOs; details: FNA 0.22-2.47 mgN/L, pH 6, 24 h exposure
Description: Sludge was taken out from the parent reactor (SBR) at the end of an aerobic period and then transferred into a batch reactor. Afterwards, ammonium and nitrite stock solutions were added to the batch reactor, resulting in the ammonium and nitrite concentrations of 25 mg NH4-N/L and 20 mg NO2-N/L, respectively. Air was supplied during the whole experiment period (DO was not limiting, i.e. >3 mg/L). pH was controlled in the range of 7.5-8 during the whole experimental period. The activities of AOB and NOB were determined as biomass-specific nitrite+nitrate and nitrate production rates, respectively.
Sludge was taken out from the parent reactor at the end of an aerobic period and then transferred into a batch reactor. Afterwards, sodium acetate and ammonium stock solutions were added to the batch reactor, resulting in the COD and ammonium concentrations of 150 mg COD/L and 20 NH4-N/L, respectively. Air was supplied during the whole experiment period (DO was not limiting, i.e. >3 mg/L). pH was controlled in the range of 7.5-8 during the whole experimental period. The aerobic activity of OHO was determined as biomass-specific COD consumption rates.
The experimental conditions applied in batch testing are set out in Table 6.

[6] = tested on: secondary sludge (enriched methonal-utilising denitrifiers culture)
Description: (§1) In general, primary sludge is readily hydrolysable (Mahmood and Elliott, 2006; Foladori et al., 2010). […] A series of batch tests were conducted through the use of an enriched methonal-utilising denitrifiers culture, which was employed as secondary sludge in this study.

[7] = tested on: secondary sludge (denitrifying microorganisms)
Description: as §1

[8] = tested on: denitrifying biomass; details: for methanol consumption rate / nitrate consumption rate / methanol consumption rate, activity recovery / nitrate consumption rate, activity recovery: experimental reactor
Description: Methanol provided the carbon source and nitrate provided the electron acceptor. The following procedure was followed:
1. Sludge removed from the denitrifying SBR (sequencing batch reactor). The biomass was enriched for 5 months in an 8 L reactor with methanol as the carbon source and nitrate as the electron acceptor.
2. A batch experiment was performed at pH 6 for initial biomass activity determination. At the beginning of the test, nitrate and methanol were added. Liquid phase samples were taken every 15 minutes for the analysis of nitrate and methanol. The consumption rates of methanol and nitrate were determined. All other batch tests described below were also conducted at pH 6. 3. Fresh sludge of 2 L was removed from the SBR at the end of a cycle, and equally divided into two batch reactors, namely the control and the experimental reactors. • a. The sludge in the control reactor was kept at pH 6 under mixed conditions for 48 hours; • b. The sludge in the experimental reactor was kept at pH 6 under mixed conditions for 48 hours. […] 4. 24 hours after the above conditions were started, sludge samples of 250 mL each were removed from both the control and the experimental reactors, and batch experiments as described in Step 2 were performed. Before the addition of nitrate and methanol, the sludges were washed with effluent from the parent SBR to ensure that both sludge samples were nitrite-free. 5. The above tests were repeated at 48 hours. 6. Sludge samples were also removed at 48 hours from both reactors to quantify the live/dead cells using the Live/Dead BacLight Bacterial Viability assay. 7. At 48 hours, the experimental reactor was washed with the effluent from the parent SBR to remove the residual nitrite. Nitrate and methanol were then added to the reactor resulting in concentrations of […] and 150 mg/L, respectively. The methanol and nitrate consumptions rates at the end of Day 3, Day 4 and Day 7 were measured through measuring the nitrate and methanol concentrations over a period over one hour each time. […] Experiments with Full-Scale Sludge

[9] = Day 1 of exposure, 500 mg NO2-N/L, pH 6, FNA approx. 0.97 ppm
[10] = Day 2 (48 h exposure; time when recovery started), FNA approx. 0.97 ppm, pH 6
[11] = Day 3, after 48 h FNA exposure and nitrite wash-out
[12] = Day 4, after 48 h FNA exposure and nitrite wash-out
[13] = Day 7, after 48 h FNA exposure and nitrite wash-out

Compound: O=NO [FNA, free nitrous acid]
- Average (% dead cells) [1]: 40.4%
- Average (% dead cells) [2]: 63.6%
- MLSS Predicted if FNA did not improve sludge degradability ([3]; FNA reactor, steady state): 2369 mg/L
- MLVSS Predicted if FNA did not improve sludge degradability ([3]; FNA reactor, steady state): 2274 mg/L
- FNA treated sludge degraded in the reactor ([3]; mass balance analysis of MLSS and MLVSS): approximately 75%
- NH4+ release rate, dependency on FNA concentration [4]: decrease
- reduction of NOB and OHO compared to AOB [5]: significantly greater reduction in NOB
- live cell fraction, effect of exposure time ([6]; 48 h of exposure vs shorter, biggest difference at highest FNA concentrations): Smaller live cell fraction
- fraction of viable cells, dependency on FNA concentration ([6]; exposure 8 h, 24 h, 48 h (FIG. 3)): decreased with increasing FNA concentration
- biomass (denitrification) activity recovery ([7]; longest exposure time to FNA, even at lowest FNA concentration): almost negligible
- biomass (denitrification) activity recovery ([7]; lower exposure time, 8 h to FNA): displays a recovery
- loss of biomass activity ([8]; FNA approximately 1 ppm for 48 hours): 99%
- methanol consumption rate [8, 9]: 0.051 mg Methanol/gVSS*min
- nitrate consumption rate [8, 9]: 0.014 mg N—NO3^−/gVSS*min
- methanol consumption rate [8, 10]: 0.0 mg Methanol/gVSS*min and 0 mg Methanol/gVSS*min
- nitrate consumption rate [8, 10]: 0.004 mg N—NO3^−/gVSS*min
- methanol consumption rate, activity recovery [8, 11]: 0.133 mg Methanol/gVSS*min
- nitrate consumption rate, activity recovery [8, 11]: 0.004 mg N—NO3^−/gVSS*min
- methanol consumption rate, activity recovery [8, 12]: 0.067 mg Methanol/gVSS*min
- nitrate consumption rate, activity recovery [8, 12]: 0.022 mg N—NO3^−/gVSS*min
- methanol consumption rate, activity recovery [8, 13]: 0.235 mg Methanol/gVSS*min
- nitrate consumption rate, activity recovery [8, 13]: 0.089 mg N—NO3^−/gVSS*min
